Laboratory results: article PMC6193938, “Characterization of a novel AICARFT inhibitor which potently elevates ZMP and has anti-tumor activity in murine models” (Scientific Reports, 2018)

How the values were obtained:
Pharmacokinetic studies = type: in vivo; details: mouse
Procedure: Blood samples were obtained through tail clip at 0, 0.08 (IV only), 0.25, 0.75, 2, 4, 8, and 24 hours where approximately 20 µL of blood was filled to capacity into EDTA-coated capillary tubes (Fisher Scientific,) and spotted on to Whatman® DMPK-C DBS collection (GE Healthcare Bio-Sciences). Once spotted, the cards were allowed to dry for 2 hours, placed in Ziploc® bags (S.C. Johnson & Son, Inc.) and shipped to the bioanalytical facility at ambient temperature. Punches (3 mm) from DBS cards were extracted with 180 µL of a 20 ng/mL analog IS (proprietary Lilly compound) in methanol/acetonitrile (1:1, v/v) solution in 96-well plates. Samples were quantitated using LC-MS analysis (AB Sciex® API 4000 triple-quadrupole mass spectrometer (Life Technologies Corporation). PK parameters were calculated for concentration time profiles using Watson LIMS version 7.4 (Thermo Scientific).

IRAK4 = molecular target: T1, IRAK4 (Homo sapiens, UniProt Q9NWZ3); assay: CEREP protein kinase assay; type: biochemical
T1 construct: purchased CEREP Panlabs (Eurofins)
T1 sequence (Q9NWZ3 1-460): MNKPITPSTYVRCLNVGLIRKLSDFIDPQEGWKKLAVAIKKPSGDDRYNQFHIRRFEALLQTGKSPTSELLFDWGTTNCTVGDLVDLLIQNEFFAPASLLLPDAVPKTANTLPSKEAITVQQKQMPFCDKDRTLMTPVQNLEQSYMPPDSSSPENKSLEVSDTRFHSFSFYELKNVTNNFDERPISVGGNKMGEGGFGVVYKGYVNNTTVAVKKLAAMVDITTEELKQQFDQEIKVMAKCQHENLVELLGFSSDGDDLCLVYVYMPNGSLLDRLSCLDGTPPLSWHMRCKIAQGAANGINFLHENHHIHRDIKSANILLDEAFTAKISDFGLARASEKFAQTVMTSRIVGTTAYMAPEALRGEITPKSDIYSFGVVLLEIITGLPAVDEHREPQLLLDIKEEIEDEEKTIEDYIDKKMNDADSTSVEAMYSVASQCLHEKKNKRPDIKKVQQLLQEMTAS

[1] = tested on: P70S6K T389 phosphorylation in NCI-H460; assay: Western analysis after overnight treatment in tissue culture; type: cell-based, human; details: 0 to 20 μM, RPMI media
Procedure: (§1) The levels of total actin, AMPKα and P70S6K are also shown. […] Full images and the croppings used in this figure are shown in Supplemental Figures S4–S13.
(§2) Antibodies were purchased as follows: pAMPK Thr172 (Cell Signaling #2535), p-p70S6 Thr389 (Cell Signaling #9205), total p70S6 (Cell Signaling #2708), total AMPKα (Cell Signaling #2793) and Actin (Sigma #A5441). Frozen tumor samples were lysed with 500 µL ice cold lysis buffer plus Halt protease inhibitor (ThermoFisher #78430) using a Power Gen 125 tissue grinder (Fisher Scientific). Western blots were run as described in the supplemental material.
(§3) Western Blots: Lysis buffer is 0.01 mg/mL Leupeptin, 0.01 mg/mL Trypsin-Chymotrypsin, 0.01 mg/mL TPCK, 0.1 mg/mL Aprotinin, 60 mM β-Gly PO4, 1% Triton-100, 25 mM Tris pH 7.5, 2.5 µM Na2Pyrophosphate, 150 mM NaCl, 0.76 mg/mL TAME, 6.2 mg/mL PNPP, 0.8 mg/mL Benzamidine, 0.2 mg/mL Na3V04, 0.42 mg/mL NaF, 0.5 mg/mL PMSF or PEFA, 1 mM DTT, 15 mM EDTA pH 8.0, 5 mM EGTA pH 8.0, 1 µM Okadaic acid, and 1 µM microcystine. RNA and DNA were degraded by addition of Benzonase (Novagen) with a 30 min incubation on ice. Lysates were cleared by centrifugation at 4 °C for 10 min at 16,000 x g. Protein content was measured using Pierce BCA protein assay kit (Thermo Scientific). Twenty ug of total protein was resolved on a 4-20% Tris HCl Criterion XT precast gel (BioRad) at 100 V for 90 minutes. Transfer electrophoresed proteins to a 0.2 µm nitrocellulose membrane using Trans Blot Turbo System (BioRad). Block membranes for 1 hr at RT in Odyssey blocking buffer (LiCor). Probe overnight 4°C for primary antibodies. Wash blots 3 x 5 min in 20 mL PBS-0.1% Tween-20.

[2] = tested on: P70S6K T389 phosphorylation in MDA-MB-231met2; assay: as above; type: cell-based, human; details: 0 to 20 μM, RPMI media
Procedure: as §1, §2, §3

[3] = tested on: AMPK T172 phosphorylation in MDA-MB-231met2; assay: as above; type: cell-based, human; details: 0 to 20 μM, RPMI media
Procedure: as §1, §2, §3

[4] = tested on: AMPK T172 phosphorylation in NCI-H460; assay: as above; type: cell-based, human; details: 0 to 20 μM, RPMI media
Procedure: as §1, §2, §3

AKT1 = molecular target: T2, AKT1 (Homo sapiens, UniProt P31749); assay: CEREP protein kinase assay; type: biochemical
T2 construct: purchased CEREP Panlabs (Eurofins)
T2 sequence (P31749 whole entry): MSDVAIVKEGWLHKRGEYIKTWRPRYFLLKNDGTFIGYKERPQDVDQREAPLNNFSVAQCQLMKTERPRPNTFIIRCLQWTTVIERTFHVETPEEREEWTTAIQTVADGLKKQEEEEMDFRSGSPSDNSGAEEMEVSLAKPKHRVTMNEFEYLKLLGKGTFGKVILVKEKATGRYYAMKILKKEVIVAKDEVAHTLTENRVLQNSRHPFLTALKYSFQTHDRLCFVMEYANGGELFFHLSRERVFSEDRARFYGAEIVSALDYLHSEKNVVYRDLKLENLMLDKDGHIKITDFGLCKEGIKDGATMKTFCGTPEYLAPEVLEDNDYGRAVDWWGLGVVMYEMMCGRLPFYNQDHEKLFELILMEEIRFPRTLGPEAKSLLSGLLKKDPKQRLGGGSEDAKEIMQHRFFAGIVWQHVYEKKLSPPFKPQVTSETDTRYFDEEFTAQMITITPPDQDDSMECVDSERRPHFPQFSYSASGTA

[5] = mouse, in vivo
FMS = molecular target: T3, FMS (Homo sapiens, UniProt P07333); assay: CEREP protein kinase assay; type: biochemical
T3 construct: purchased CEREP Panlabs (Eurofins)
T3 sequence (P07333 20-972): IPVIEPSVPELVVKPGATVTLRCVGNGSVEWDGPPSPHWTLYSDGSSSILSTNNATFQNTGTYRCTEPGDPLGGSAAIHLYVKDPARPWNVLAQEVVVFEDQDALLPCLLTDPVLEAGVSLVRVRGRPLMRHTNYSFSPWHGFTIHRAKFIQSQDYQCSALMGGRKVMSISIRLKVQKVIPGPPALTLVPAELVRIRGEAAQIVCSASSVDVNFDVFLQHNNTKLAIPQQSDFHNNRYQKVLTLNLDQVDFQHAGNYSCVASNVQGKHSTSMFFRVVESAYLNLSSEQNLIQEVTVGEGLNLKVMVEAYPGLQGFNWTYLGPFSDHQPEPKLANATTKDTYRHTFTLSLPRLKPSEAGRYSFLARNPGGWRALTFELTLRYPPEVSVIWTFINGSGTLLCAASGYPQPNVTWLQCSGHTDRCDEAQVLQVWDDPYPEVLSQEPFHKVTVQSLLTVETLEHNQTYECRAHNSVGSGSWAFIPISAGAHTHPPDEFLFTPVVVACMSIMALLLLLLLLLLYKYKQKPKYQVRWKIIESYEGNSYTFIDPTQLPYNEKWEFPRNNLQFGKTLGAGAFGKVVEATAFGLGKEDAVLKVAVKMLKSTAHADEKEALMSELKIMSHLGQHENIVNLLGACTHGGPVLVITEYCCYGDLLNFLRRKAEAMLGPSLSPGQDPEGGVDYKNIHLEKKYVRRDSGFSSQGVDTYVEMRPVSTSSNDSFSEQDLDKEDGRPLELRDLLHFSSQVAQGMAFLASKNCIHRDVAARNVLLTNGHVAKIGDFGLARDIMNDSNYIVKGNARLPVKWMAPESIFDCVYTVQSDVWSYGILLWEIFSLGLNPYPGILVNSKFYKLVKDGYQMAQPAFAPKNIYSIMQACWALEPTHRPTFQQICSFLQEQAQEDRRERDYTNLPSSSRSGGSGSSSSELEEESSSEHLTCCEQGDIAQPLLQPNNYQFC

[6] = male, CD-1, whole blood (dried blood spots), oral 10 mg/kg

## O=c1[nH]ccc2cc(F)c(NS(=O)(=O)c3ccc(N4CC[C@@H](O)C4)s3)cc12 [LSN3213128, N-(6-Fluoro-1-oxo-1,2-dihydroisoquinolin-7-yl)-5-[(3R)-3-hydroxypyrrolidin-1-yl]thiophene-2-sulfonamide]
Pharmacokinetic studies; male, CD-1, whole blood (dried blood spots), intravenous 1 mg/kg, read-out: volume of distribution
  Vd: 0.779 ± 0.17 L/kg
Pharmacokinetic studies; [6]
  AUC: 20.2 ± 4.52 µM·h
  Cmax: 4.57 ± 0.559 µM
Pharmacokinetic studies; male, CD-1, whole blood (dried blood spots), oral 10 mg/kg vs intravenous 1 mg/kg
  bioavailability: 24.6 ± 4.6%
Pharmacokinetic studies; oral 10 mg/kg
  half-life: 2.4 ± 0.3 h
  unbound Cmax: 0.251 ± 0.031 µM
IRAK4; @ 0.2 uM
  inhibition at 0.2 µM: -4.69%
IRAK4; @ 2 uM
  inhibition at 2 µM: 0.428%
IRAK4; @ 20 uM
  inhibition at 20 µM: -0.827%
[1]
  phosphorylation of P70S6K T389: inhibits the phosphorylation
[2]
  P70S6K T389 phosphorylation: corresponding decrease
[3]
  AMPK T172 phosphorylation: expected increase
[4]
  phosphorylated AMPK T172: not increased
AKT1; @ 0.2 uM
  inhibition at 0.2 µM: -1.76%
AKT1; @ 2 uM
  inhibition at 2 µM: 5.52%
AKT1; @ 20 uM
  inhibition at 20 µM: -6.9%
[5]
  tolerability of efficacy studies: toxicity upon repeated dosing
FMS; @ 0.2 uM
  inhibition at 0.2 µM: 2.06%
FMS; @ 2 uM
  inhibition at 2 µM: 19.2%
FMS; @ 20 uM
  inhibition at 20 µM: 48.4%
